According to the supplement of paper PMC11208160:

Assay: recombinant barcode read abundance after kanamycin selection (control-corrected) (log10(CPM+1)); higher = more efficient recombination; sequences stand for … in AGTGCAGAGAAAATCGGCCAGTTTTCTCTGCCTGCAGTCCGCATGCCGT…AGATTTATGCAGCGGACTGCCTTTCTCCCAAAGTGATAAACCGGACAGTATCATGGACCGGTTTTCCCGGTAATCCGTATTTGCAAGGTTGGTTTCACT; site = the 11-nt target
In short: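 Oligos holding a promoter, target, barcode and the J23119-driven first 104 bases of the bridge RNA were Gibson-cloned into a vector that supplied the other 73 bp plus a T7-inducible recombinase. This library was co-electroporated with a donor plasmid into E. coli. Two replicates went on chloramphenicol/ampicillin LB agar (control) and two on chloramphenicol/ampicillin/kanamycin with 0.1 mM IPTG. Recombination efficiency is read from averaged, control-corrected barcode counts per million at recombinant junctions, reported as log10(CPM+1).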
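Further: IS621 recombinase and bridge RNA in Escherichia coli cells.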

Sequence: GTCACAACTTGGGTTCTAACCTGTTGCCG (site AGGTTTGCTAA)
- recombinant barcode read abundance (log10): 0.056

Sequence: GTCACAACTTGGGTTCTAACCTGTTGCCG (site GTCACAACTCG)
- recombinant barcode read abundance (log10): 0.339

Sequence: GTCACAGCTTGGGTTCTAACCTGTTGCCT (site GTCAAAGCTTG)
- recombinant barcode read abundance (log10): 0.0492

Sequence: GTCACAGCTTGGGTTCTAACCTGTTGCCT (site GTCACAGCTAG)
- recombinant barcode read abundance (log10): 1.23

Sequence: GTCAGATCTTGGGTTCTAACCTGTTGCTT (site GTCAGATCTAA)
- recombinant barcode read abundance (log10): 0.398

Sequence: GTCAGATCTTGGGTTCTAACCTGTTGCTT (site TCGTTCGCTCG)
- recombinant barcode read abundance (log10): 0.0896

Sequence: GTCAGGGCTTGGGTTCTAACCTGTTGCCT (site GTCAGGGCTAG)
- recombinant barcode read abundance (log10): 0.275

Sequence: GTCAGGGCTTGGGTTCTAACCTGTTGCCT (site GTCATGGCTAG)
- recombinant barcode read abundance (log10): 0.197

Sequence: GTCATGCCTTGGGTTCTAACCTGTTGCGT (site GTCATGCCTAC)
- recombinant barcode read abundance (log10): 1.58

Sequence: GTCATGCCTTGGGTTCTAACCTGTTGCGT (site GTCTTCCCTAC)
- recombinant barcode read abundance (log10): 0.125

Sequence: GTCATGTCTTGGGTTCTAACCTGTTGCTG (site ACAGGTCCTTC)
- recombinant barcode read abundance (log10): 0.0358

Sequence: GTCATGTCTTGGGTTCTAACCTGTTGCTG (site GTCATGTCTCA)
- recombinant barcode read abundance (log10): 1.5

Sequence: GTCCAGCCTTGGGTTCTAACCTGTTGCAT (site CTCTAGCCTAT)
- recombinant barcode read abundance (log10): 0.0778

Sequence: GTCCAGCCTTGGGTTCTAACCTGTTGCAT (site GTCCAGCCTAT)
- recombinant barcode read abundance (log10): 1.98

Sequence: GTCCCTCCTTGGGTTCTAACCTGTTGCAT (site GTCCCTCCTAA)
- recombinant barcode read abundance (log10): 0.746

Sequence: GTCCCTCCTTGGGTTCTAACCTGTTGCAT (site GTCCCTCCTAC)
- recombinant barcode read abundance (log10): 0.405

Sequence: GTCCCTCCTTGGGTTCTAACCTGTTGCAT (site GTCCCTCCTAG)
- recombinant barcode read abundance (log10): 0.16

Sequence: GTCCCTCCTTGGGTTCTAACCTGTTGCAT (site GTCCCTCCTAT)
- recombinant barcode read abundance (log10): 1.96

Sequence: GTCCCTCCTTGGGTTCTAACCTGTTGCTT (site GTCCCTCCTAA)
- recombinant barcode read abundance (log10): 0.94

Sequence: GTCCCTCCTTGGGTTCTAACCTGTTGCTT (site GTCCCTCCTAC)
- recombinant barcode read abundance (log10): 0.104

Sequence: GTCCCTCCTTGGGTTCTAACCTGTTGCTT (site GTCCCTCCTAG)
- recombinant barcode read abundance (log10): 0.201

Sequence: GTCCCTCCTTGGGTTCTAACCTGTTGCTT (site GTCCCTCCTAT)
- recombinant barcode read abundance (log10): 0.453

Sequence: GTCCGTCCTTGGGTTCTAACCTGTTGCAT (site GTCCGTCCTAA)
- recombinant barcode read abundance (log10): 0.178

Sequence: GTCCGTCCTTGGGTTCTAACCTGTTGCAT (site GTCCGTCCTAC)
- recombinant barcode read abundance (log10): 0.688

Sequence: GTCCGTCCTTGGGTTCTAACCTGTTGCAT (site GTCCGTCCTAG)
- recombinant barcode read abundance (log10): 0.129

Sequence: GTCCGTCCTTGGGTTCTAACCTGTTGCAT (site GTCCGTCCTAT)
- recombinant barcode read abundance (log10): 1.77

Sequence: GTCCTAACTTGGGTTCTAACCTGTTGCAC (site GTCCTAACTGT)
- recombinant barcode read abundance (log10): 2.08

Sequence: GTCCTAACTTGGGTTCTAACCTGTTGCAC (site GTCCTACCTTT)
- recombinant barcode read abundance (log10): 0.0749

Sequence: GTCCTACCTTGGGTTCTAACCTGTTGCCT (site GTCATACCTAG)
- recombinant barcode read abundance (log10): 0.0144

Sequence: GTCCTACCTTGGGTTCTAACCTGTTGCCT (site GTCCTACCTAG)
- recombinant barcode read abundance (log10): 1.54

Sequence: GTCCTACCTTGGGTTCTAACCTGTTGCCT (site GTCGTACCTAG)
- recombinant barcode read abundance (log10): 0.503

Sequence: GTCCTACCTTGGGTTCTAACCTGTTGCCT (site GTCTTACCTAG)
- recombinant barcode read abundance (log10): 0.588

Sequence: GTCGACACTTGGGTTCTAACCTGTTGCCT (site GTCGACACTAG)
- recombinant barcode read abundance (log10): 1.5

Sequence: GTCGACACTTGGGTTCTAACCTGTTGCCT (site GTCGAGTCTAG)
- recombinant barcode read abundance (log10): 0.126

Sequence: GTCGACGCTTGGGTTCTAACCTGTTGCCT (site GTCGACCCTAG)
- recombinant barcode read abundance (log10): 0.158

Sequence: GTCGACGCTTGGGTTCTAACCTGTTGCCT (site GTCGACGCTAG)
- recombinant barcode read abundance (log10): 0.635

Sequence: GTCGCCACTTGGGTTCTAACCTGTTGCCT (site GTAGCCACTAG)
- recombinant barcode read abundance (log10): 0.239

Sequence: GTCGCCACTTGGGTTCTAACCTGTTGCCT (site GTCGCCACTAG)
- recombinant barcode read abundance (log10): 0.0549

Sequence: GTCGCCACTTGGGTTCTAACCTGTTGCCT (site GTGGCCACTAG)
- recombinant barcode read abundance (log10): 0.159

Sequence: GTCGCCACTTGGGTTCTAACCTGTTGCCT (site GTTGCCACTAG)
- recombinant barcode read abundance (log10): 0.196

Sequence: GTCGCGGCTTGGGTTCTAACCTGTTGCCT (site GTCGCGACTAG)
- recombinant barcode read abundance (log10): 0.454

Sequence: GTCGCGGCTTGGGTTCTAACCTGTTGCCT (site GTCGCGCCTAG)
- recombinant barcode read abundance (log10): 0.182

Sequence: GTCGCGGCTTGGGTTCTAACCTGTTGCCT (site GTCGCGGCTAG)
- recombinant barcode read abundance (log10): 0.418

Sequence: GTCGCGGCTTGGGTTCTAACCTGTTGCCT (site GTCGCGTCTAG)
- recombinant barcode read abundance (log10): 0.324

Sequence: GTCGCGTCTTGGGTTCTAACCTGTTGCCT (site GTCGCGACTAG)
- recombinant barcode read abundance (log10): 0.198

Sequence: GTCGCGTCTTGGGTTCTAACCTGTTGCCT (site GTCGCGCCTAG)
- recombinant barcode read abundance (log10): 0.738

Sequence: GTCGCGTCTTGGGTTCTAACCTGTTGCCT (site GTCGCGGCTAG)
- recombinant barcode read abundance (log10): 0.392

Sequence: GTCGCGTCTTGGGTTCTAACCTGTTGCCT (site GTCGCGTCTAG)
- recombinant barcode read abundance (log10): 0.328

Sequence: GTCGGAGCTTGGGTTCTAACCTGTTGCCG (site GTCGGAGCTCA)
- recombinant barcode read abundance (log10): 0.0109

Sequence: GTCGGAGCTTGGGTTCTAACCTGTTGCCG (site GTCGGAGCTCC)
- recombinant barcode read abundance (log10): 0.152

Sequence: GTCGGAGCTTGGGTTCTAACCTGTTGCCG (site GTCGGAGCTCG)
- recombinant barcode read abundance (log10): 0.218

Sequence: GTCGGAGCTTGGGTTCTAACCTGTTGCCG (site GTCGGAGCTCT)
- recombinant barcode read abundance (log10): 0.435

Sequence: GTCGGAGCTTGGGTTCTAACCTGTTGCGG (site GTCGGAGCTCA)
- recombinant barcode read abundance (log10): 0.282

Sequence: GTCGGAGCTTGGGTTCTAACCTGTTGCGG (site GTCGGAGCTCC)
- recombinant barcode read abundance (log10): 1.97

Sequence: GTCGGAGCTTGGGTTCTAACCTGTTGCGG (site GTCGGAGCTCG)
- recombinant barcode read abundance (log10): 0.0393

Sequence: GTCGGAGCTTGGGTTCTAACCTGTTGCGG (site GTCGGAGCTCT)
- recombinant barcode read abundance (log10): 1.29

Sequence: GTCGGAGCTTGGGTTCTAACCTGTTGCTG (site GTCGGAGCTCA)
- recombinant barcode read abundance (log10): 0.757

Sequence: GTCGGAGCTTGGGTTCTAACCTGTTGCTG (site GTCGGAGCTCC)
- recombinant barcode read abundance (log10): 0.511

Sequence: GTCGGAGCTTGGGTTCTAACCTGTTGCTG (site GTCGGAGCTCG)
- recombinant barcode read abundance (log10): 0.353

Sequence: GTCGGAGCTTGGGTTCTAACCTGTTGCTG (site GTCGGAGCTCT)
- recombinant barcode read abundance (log10): 0.737

Sequence: GTCGGCACTTGGGTTCTAACCTGTTGCCT (site GTCGGAACTAG)
- recombinant barcode read abundance (log10): 0.359

Sequence: GTCGGCACTTGGGTTCTAACCTGTTGCCT (site GTCGGCACTAG)
- recombinant barcode read abundance (log10): 0.491

Sequence: GTCGGCACTTGGGTTCTAACCTGTTGCCT (site GTCGGGACTAG)
- recombinant barcode read abundance (log10): 0.653

Sequence: GTCGGCACTTGGGTTCTAACCTGTTGCCT (site GTCGGTACTAG)
- recombinant barcode read abundance (log10): 0.221

Sequence: GTCGGCGCTTGGGTTCTAACCTGTTGCCT (site GTAGGCGCTAG)
- recombinant barcode read abundance (log10): 0.107

Sequence: GTCGGCGCTTGGGTTCTAACCTGTTGCCT (site GTCGGCGCTAG)
- recombinant barcode read abundance (log10): 0.912
